Results from patent US20240069010A1, “TISSUE ORGANOID BIOPRINTING AND HIGH-THROUGHPUT SCREENING METHODOLOGY” (priority 2020, published 2024).

What was measured:
[1] = in vivo; cited from earlier work
BT-474 organoids = experiment: HSLCI mass tracking of bioprinted organoids in drug screening; format: cell-based; details: for Organoid Behavior (%) Lost Mass: mass loss >10%; for Organoid Behavior (%) Stable: mass change <10%; for Organoid Behavior (%) Gained Mass: mass increase >10%
Source text: (§1) Cells were bioprinted using a CELLINK BioX with a Temperature-Controlled Printhead. Gcode files were written to print the desired single-layer geometry. We wrote standardized blocks of Gcode encode the print path for the repeated geometries. MATLAB (MathWorks, Inc.) was used to integrate these standardized blocks into full Gcode files with the defined coordinates for each well. We used 8-well plates when printing the larger constructs as the depth of the well in a standard 24-well plate prohibited the use of 0.5″ length needles. Large rings were necessary to deposit a sufficient number of cells for RNA-Seq and IHC. Four rings with a diameter of 14.5 mm were printed for RNA sequencing (approximately 200,000 cells total), while four sets of concentric 14.5 mm, 12.5 mm, and 10.5 mm diameter rings were used for IHC analysis (approximately 500,000 cells total). We printed mini-squares with side length 3.9 mm for drug screening and HSLCI imaging. The mini-squares were inscribed within the circular well with sides parallel to the sides of the well plate. The open center of the constructs facilitates automatic manipulation with fluid handling equipment while the sides of the square are positioned to maximize the number of organoids imaged by HSLCI. The bioprinting process utilized the same material deposited for manually seeded organoids. A single cell suspension, aggregates or clusters in a 3:4 mixture of MammoCult™ and Matrigel® was prepared on ice. After vortexing briefly to homogenize, the mixture was transferred into a 3 mL syringe by removing the plunger and capping the opposite end. Once the plunger was replaced, the syringe was inverted, and bubbles were forced out of the tip. The material was then transferred to a room temperature 3 mL bioprinter cartridge (CELLINK) by connecting the syringe and cartridge with a double-sided female Luer lock adapter (CELLINK). Any air bubbles in the syringe were removed and the loaded cartridge was incubated in a rotating incubator (Enviro-Genie, Scientific Industries) for 30 minutes at the print temperature.
(§2) During the incubation period, the printer was sterilized with the built-in UV irradiation function and the printhead was set to the print temperature. […] The well masks were autoclaved prior to use. The masks were inserted into the well plate and pressed in contact with the glass surface. Rubber bands were used to hold the masks in place and ensure conformal contact was maintained throughout the plasma treatment. The well plates were treated with oxygen plasma in a PE-25 (Plasma Etch) for 30-90 seconds, 15 minutes prior to bioprinting. After plasma treatment, the well plate was placed in the bioprinter and Automatic Bed Levelling (ABL) was performed.
(§3) Once the incubation period ended, we attached a 0.5″ 25-gauge needle and loaded the cartridge into the pre-cooled printhead. We primed the needle by extruding a small volume of material at 15 kPa prior to calibrating the printer. Just before printing, we cleared the needle of the gelled material by extruding a small volume using 40 kPa prior to starting the print. To create constructs of the appropriate thicknesses, prints in 8-well plates were extruded at 15 kPa while prints in 96-well plates were extruded at 12-15 kPa. […] After printing, the constructs were incubated at 37° C. for at least 30 minutes to solidify the matrix and 100 μL of MammoCult™ medium was then added.
(§4) The HSLCI platform was installed inside a standard cell culture incubator. For all growth kinetics studies and drug screening, organoids were imaged in 96-well glass-bottom plates (Cellvis P96-1.5H-N) using a 40× objective (Nikon, NA 0.75). Organoids were seeded as single-cell suspensions in a 3:4 mixture of MammoCult™ and Matrigel® as described above and were grown at 37° C. and 5% CO2 in MammoCult™ medium supplemented with 1% antibiotic-antimycotic (Gibco 15240-062).

MCF-7 organoids = experiment: as above; format: cell-based; details: for Organoid Behavior (%) Stable / Organoid Behavior (%) Gained Mass / Organoid Behavior (%) Lost Mass: MCF-7 organoids; for Organoid Behavior (%) Stable: mass change <10%; for Organoid Behavior (%) Gained Mass: mass increase >10%; for Organoid Behavior (%) Lost Mass: mass loss >10%
Source text: as §1, §2, §3, §4

CS(=O)(=O)CCNCc1ccc(-c2ccc3ncnc(Nc4ccc(OCc5cccc(F)c5)c(Cl)c4)c3c2)o1 [Lapatinib, lapatinib]
maximum plasma concentration reported [1]: 4.2 µM | Mean mass of BT-474 organoids, Mean mass ± SD (BT-474 organoids; 0.1 μM, 6 hours of treatment): 1.84 ± 1.21 ng | Mean mass of BT-474 organoids, Mean mass ± SD (BT-474 organoids; 0.1 μM, 48 hours of treatment): 2.33 ± 1.58 ng | Mean mass of BT-474 organoids, Mean mass ± SD (BT-474 organoids; 1 μM, 6 hours of treatment): 1.58 ± 0.78 ng | Mean mass of BT-474 organoids, Mean mass ± SD (BT-474 organoids; 1 μM, 48 hours of treatment): 1.48 ± 0.66 ng | Mean mass of BT-474 organoids, Mean mass ± SD (BT-474 organoids; 10 μM, 6 hours of treatment): 1.74 ± 0.88 ng | Mean mass of BT-474 organoids, Mean mass ± SD (BT-474 organoids; 10 μM, 48 hours of treatment): 1.42 ± 0.75 ng | Mean mass of BT-474 organoids, Mean mass ± SD (BT-474 organoids; 50 μM, 6 hours of treatment): 1.58 ± 0.70 ng | Mean mass of BT-474 organoids, Mean mass ± SD (BT-474 organoids; 50 μM, 48 hours of treatment): 0.92 ± 0.48 ng | Organoid Behavior (%) Lost Mass (BT-474 organoids; BT-474 organoids, 0.1 μM, 12 h): 3.1% | Organoid Behavior (%) Stable (BT-474 organoids; BT-474 organoids, 0.1 μM, 24 h): 45.6% | Organoid Behavior (%) Gained Mass (BT-474 organoids; BT-474 organoids, 0.1 μM, 24 h): 49.1% | Organoid Behavior (%) Lost Mass (BT-474 organoids; BT-474 organoids, 0.1 μM, 24 h): 5.3% | Organoid Behavior (%) Stable (BT-474 organoids; BT-474 organoids, 0.1 μM, 48 h): 25.8% | Organoid Behavior (%) Gained Mass (BT-474 organoids; BT-474 organoids, 0.1 μM, 48 h): 67.7% | Organoid Behavior (%) Lost Mass (BT-474 organoids; BT-474 organoids, 0.1 μM, 48 h): 6.5% | Organoid Behavior (%) Lost Mass (BT-474 organoids; BT-474 organoids, 1 μM, 12 h): 7.4% | Organoid Behavior (%) Stable (BT-474 organoids; BT-474 organoids, 1 μM, 24 h): 54.2% | Organoid Behavior (%) Gained Mass (BT-474 organoids; BT-474 organoids, 1 μM, 24 h): 20.3% | Organoid Behavior (%) Lost Mass (BT-474 organoids; BT-474 organoids, 1 μM, 24 h): 25.4% | Organoid Behavior (%) Stable (BT-474 organoids; BT-474 organoids, 1 μM, 48 h): 50.0% | Organoid Behavior (%) Gained Mass (BT-474 organoids; BT-474 organoids, 1 μM, 48 h): 27.5% | Organoid Behavior (%) Lost Mass (BT-474 organoids; BT-474 organoids, 1 μM, 48 h): 22.5% | Organoid Behavior (%) Gained Mass (BT-474 organoids; BT-474 organoids, 10 μM, 12 h): 19.6% | Organoid Behavior (%) Lost Mass (BT-474 organoids; BT-474 organoids, 10 μM, 12 h): 7.1% | Organoid Behavior (%) Stable (BT-474 organoids; BT-474 organoids, 10 μM, 24 h): 60.3% | Organoid Behavior (%) Gained Mass (BT-474 organoids; BT-474 organoids, 10 μM, 24 h): 9.5% | Organoid Behavior (%) Lost Mass (BT-474 organoids; BT-474 organoids, 10 μM, 24 h): 30.2% | Organoid Behavior (%) Stable (BT-474 organoids; BT-474 organoids, 10 μM, 48 h): 47.2% | Organoid Behavior (%) Gained Mass (BT-474 organoids; BT-474 organoids, 10 μM, 48 h): 15.1% | Organoid Behavior (%) Lost Mass (BT-474 organoids; BT-474 organoids, 10 μM, 48 h): 37.7% | Organoid Behavior (%) Lost Mass (BT-474 organoids; BT-474 organoids, 50 μM, 12 h): 18.5% | Organoid Behavior (%) Stable (BT-474 organoids; BT-474 organoids, 50 μM, 24 h): 55.6% | Organoid Behavior (%) Gained Mass (BT-474 organoids; BT-474 organoids, 50 μM, 24 h): 9.7% | Organoid Behavior (%) Lost Mass (BT-474 organoids; BT-474 organoids, 50 μM, 24 h): 34.7% | Organoid Behavior (%) Gained Mass (BT-474 organoids; BT-474 organoids, 50 μM, 48 h): 3.8% | Organoid Behavior (%) Lost Mass (BT-474 organoids; BT-474 organoids, 50 μM, 48 h): 84.6% | lowest concentration at which organoids were affected (average mass) (BT-474 organoids; BT-474 organoids, 48 h): 1 µM | Mean mass of MCF-7 organoids, Mean mass ± SD (MCF-7 organoids; 0.1 μM, 6 hours of treatment): 2.00 ± 1.43 ng | Mean mass of MCF-7 organoids, Mean mass ± SD (MCF-7 organoids; 0.1 μM, 48 hours of treatment): 2.76 ± 2.35 ng | Mean mass of MCF-7 organoids, Mean mass ± SD (MCF-7 organoids; 1 μM, 6 hours of treatment): 2.20 ± 1.33 ng | Mean mass of MCF-7 organoids, Mean mass ± SD (MCF-7 organoids; 1 μM, 48 hours of treatment): 2.71 ± 2.09 ng | Mean mass of MCF-7 organoids, Mean mass ± SD (MCF-7 organoids; 10 μM, 6 hours of treatment): 2.30 ± 1.48 ng | Mean mass of MCF-7 organoids, Mean mass ± SD (MCF-7 organoids; 10 μM, 48 hours of treatment): 2.46 ± 1.90 ng | Mean mass of MCF-7 organoids, Mean mass ± SD (MCF-7 organoids; 50 μM, 6 hours of treatment): 1.71 ± 0.84 ng | Mean mass of MCF-7 organoids, Mean mass ± SD (MCF-7 organoids; 50 μM, 48 hours of treatment): 1.32 ± 1.03 ng | Mean mass of MCF-7 organoids, Mean mass ± SD (MCF-7 organoids; 50 μM, 48 hours of treatment, listed as lapatinib): 1.32 ± 1.06 ng | Organoid Behavior (%) Stable (MCF-7 organoids; 0.1 μM, 12 h): 73.5% | Organoid Behavior (%) Gained Mass (MCF-7 organoids; 0.1 μM, 12 h): 17.6% | Organoid Behavior (%) Lost Mass (MCF-7 organoids; 0.1 μM, 12 h): 8.8% | Organoid Behavior (%) Stable (MCF-7 organoids; 0.1 μM, 24 h): 56.3% | Organoid Behavior (%) Gained Mass (MCF-7 organoids; 0.1 μM, 24 h): 28.1% | Organoid Behavior (%) Lost Mass (MCF-7 organoids; 0.1 μM, 24 h): 15.6% | Organoid Behavior (%) Stable (MCF-7 organoids; 0.1 μM, 48 h): 34.4% | Organoid Behavior (%) Gained Mass (MCF-7 organoids; 0.1 μM, 48 h): 46.9% | Organoid Behavior (%) Lost Mass (MCF-7 organoids; 0.1 μM, 48 h): 18.8% | Organoid Behavior (%) Stable (MCF-7 organoids; 1 μM, 12 h): 88.2% | Organoid Behavior (%) Gained Mass (MCF-7 organoids; 1 μM, 12 h): 8.8% | Organoid Behavior (%) Lost Mass (MCF-7 organoids; 1 μM, 12 h): 2.9% | Organoid Behavior (%) Stable (MCF-7 organoids; 1 μM, 24 h): 45.2% | Organoid Behavior (%) Gained Mass (MCF-7 organoids; 1 μM, 24 h): 45.2% | Organoid Behavior (%) Lost Mass (MCF-7 organoids; 1 μM, 24 h): 9.7% | Organoid Behavior (%) Stable (MCF-7 organoids; 1 μM, 48 h): 26.3% | Organoid Behavior (%) Gained Mass (MCF-7 organoids; 1 μM, 48 h): 55.3% | Organoid Behavior (%) Lost Mass (MCF-7 organoids; 1 μM, 48 h): 18.4% | Organoid Behavior (%) Stable (MCF-7 organoids; 10 μM, 12 h): 84.1% | Organoid Behavior (%) Gained Mass (MCF-7 organoids; 10 μM, 12 h): 6.8% | Organoid Behavior (%) Lost Mass (MCF-7 organoids; 10 μM, 12 h): 9.1% | Organoid Behavior (%) Stable (MCF-7 organoids; 10 μM, 24 h): 56.5% | Organoid Behavior (%) Gained Mass (MCF-7 organoids; 10 μM, 24 h): 26.1% | Organoid Behavior (%) Lost Mass (MCF-7 organoids; 10 μM, 24 h): 17.4% | Organoid Behavior (%) Stable (MCF-7 organoids; 10 μM, 48 h): 32.4% | Organoid Behavior (%) Gained Mass (MCF-7 organoids; 10 μM, 48 h): 32.4% | Organoid Behavior (%) Stable (MCF-7 organoids; 50 μM, 12 h): 58.6% | Organoid Behavior (%) Gained Mass (MCF-7 organoids; 50 μM, 12 h): 6.9% | Organoid Behavior (%) Stable (MCF-7 organoids; 50 μM, 24 h): 39.3% | Organoid Behavior (%) Gained Mass (MCF-7 organoids; 50 μM, 24 h): 14.3% | Organoid Behavior (%) Lost Mass (MCF-7 organoids; 50 μM, 24 h): 46.4% | Organoid Behavior (%) Stable (MCF-7 organoids; 50 μM, 48 h): 43.5% | Organoid Behavior (%) Gained Mass (MCF-7 organoids; 50 μM, 48 h): 4.3% | Organoid Behavior (%) Lost Mass (MCF-7 organoids; 50 μM, 48 h): 52.2%
